Measurements from patent US10544130B2, “Metallo-beta-lactamase inhibitors” (priority 2015, dated 2020).
Read-outs that look alike come from different tables or passages of the source.

Legend:
[1] = tested on: Escherichia coli expressing NDM-1 (CLB30005, CLB30016); type: cell-based; settings: with imipenem 1 μg/ml, 95% inhibition of bacterial growth
Protocol: (§1) Antibiotic Potentiation Activity: Determination of Synergistic Concentration
(§2) The bacterial strains tested included the clinical strains Escherichia coli expressing NDM-1 (CLB30005, CLB30016), Serratia marcescens expressing IMP-1 (CL5741), and Klebsiella pneumoniae expressing VIM-1 (IHMA599644). Inhibitor activity was measured in the presence and absence of imipenem in a 384-well microplate.
(§3) The clinical strains CLB30016, CL5741 and IHMA599644 were grown on trypticase soy agar containing 5% sheep's blood. The bacteria on agar plates were incubated at 35° C. with humidity overnight. The following day, individual colonies from each clinical strain were picked and resuspended in 5 ml saline to attain an OD600 of 0.14, 0.11, 0.15 and 0.13, for CLB30016, CL5741 and IHMA599644, respectively. These were further diluted 1:100 into 1.1× CAMHB and used to inoculate the test wells as described below.
(§4) Imipenem in 10 mM 3-(N-morpholino)propanesulfonic acid (MOPS, pH 7) was stored in single use aliquots at −80° C. […] On the day of the assay, 4 μl of antibiotic was added to 45 ul of bacteria followed by 1 μl of test compound and mixed by pipetting and with an orbital shaker. The concentration of antibiotic used in the assay was 1 μg/ml. Microplates were covered and incubated at 35° C. for 22 hours to 24 hours. At the end of the incubation, absorbance was determined using a spectrophotometer.

[2] = tested on: Serratia marcescens expressing IMP-1 (CL5741); type: cell-based; settings: with imipenem 1 μg/ml; 95% inhibition of bacterial growth
Protocol: as §1, §2, §3, §4

[3] = tested on: Pseudomonas aeruginosa PAO1 MB9798 (efflux+, IMP-1); settings: ratio MITC95 PA 9798/MITC95 PA 9799; imipenem at 2 μg/mL
How it was run: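 Isogenic PAO1 pair (efflux+ MB9798, efflux− MB9799, both IMP-1) tested by microbroth MIC with fixed imipenem and/or ceftazidime, usually at CLSI breakpoint, plus fixed class A/C inhibitor against AmpC. MBL inhibitor titrated; concentration restoring susceptibility recorded and fold difference between strains taken as efflux extent.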

| SMILES | Escherichia coli (NDM-1) MITC95 [1] | Escherichia coli (NDM-1) MITC95 ([1]; CLB30016) | Serratia marcescens (IMP-1) MITC95 [2] | Efflux ratio [3] |
| --- | --- | --- | --- | --- |
| NCC(CN)NS(=O)(=O)c1ccc(-c2ccnc(-c3cnc(N)[nH]3)c2)c(-c2nnn[nH]2)c1S(N)(=O)=O [Example 437, 4-(2-(2-Amino-1H-imidazol-5-yl)pyridin-4-yl)-N^1-(1,3-diaminopropan-2-yl)-3-(1H-tetrazol-5-yl)benzene-1,2-disulfonamide] | 0.7813 µM | – | – | – |
| NCCNc1cc(-c2ccc(S(=O)(=O)N[C@@H]3CCNC3)c(S(N)(=O)=O)c2-c2nn[nH]n2)ccn1 [Example 458, (R)-4-(2-((2-aminoethyl)amino)pyridin-4-yl)-N1-(pyrrolidin-3-yl)-3-(2H-tetrazol-5-yl)benzene-1,2-disulfonamide] | 0.7813 µM | – | – | – |
| NCCNS(=O)(=O)c1ccc(-c2ccc3[nH]c(CN)nc3c2)c(-c2nn[nH]n2)c1S(N)(=O)=O [Example 466, N1-(2-aminoethyl)-4-(2-(aminomethyl)-1H-benzo[d]imidazol-5-yl)-3-(2H-tetrazol-5-yl)benzene-1,2-disulfonamide] | 0.7813 µM | – | – | – |
| C[C@@H](CCN)NS(=O)(=O)c1ccc(-c2ccc(N)nc2)c(-c2nn[nH]n2)c1S(N)(=O)=O [Example 499, (5)-N1-(4-aminobutan-2-yl)-4-(6-aminopyridin-3-yl)-3-(1H-tetrazol-5-yl)benzene-1,2-disulfonamide] | – | 0.7813 µM | – | – |
| NCc1nc2cc(-c3ccc(S(=O)(=O)NC[C@@H](O)CN)c(S(N)(=O)=O)c3-c3nn[nH]n3)ccc2[nH]1 [Example 465, (S)-N1-(3-amino-2-hydroxypropyl)-4-(2-(aminomethyl)-1H-benzo[d]imidazol-5-yl)-3-(2H-tetrazol-5-yl)benzene-1,2-disulfonamide] | 0.7813 µM | – | – | – |
| C[C@H](CN)NS(=O)(=O)c1ccc(-c2cc(F)cc3[nH]c(N)nc23)c(-c2nn[nH]n2)c1S(N)(=O)=O [Example 396, (R)-4-(2-amino-6-fluoro-1H-benzo[d]imidazol-4-yl)-N^1-(1-aminopropan-2-yl)-3-(2H-tetrazol-5-yl)benzene-1,2-disulfonamide] | 0.7813 µM | – | – | – |
| C[N+]1(C)CC(NS(=O)(=O)c2ccc(-c3cccc4[nH]c(N)nc34)c(-c3nn[nH]n3)c2S(N)(=O)=O)C1.O=C([O-])O [Example 245, 3-(4-(2-Amino-1H-benzo[d]imidazol-4-yl)-2-sulfamoyl-3-(2H-tetrazol-5-yl)phenylsulfonamido)-1,1-dimethylazetidin-1-ium hydrogencarbonate] | – | – | 1.563 µM | 1.00 |
| NCCNS(=O)(=O)c1ccc(-c2cccc3[nH]c(C4CNC4)nc23)c(-c2nn[nH]n2)c1S(N)(=O)=O [Example 443, N1-(2-aminoethyl)-4-(2-(azetidin-3-yl)-1H-benzo[d]imidazol-4-yl)-3-(2H-tetrazol-5-yl)benzene-1,2-disulfonamide] | 0.7813 µM | – | – | – |
| NCCNS(=O)(=O)c1ccc(-c2cccc3[nH]c([C@@H]4C[C@@H](O)CN4)nc23)c(-c2nn[nH]n2)c1S(N)(=O)=O [Example 444, N1-(2-aminoethyl)-4-(2-((2S,4R)-4-hydroxypyrrolidin-2-yl)-1H-benzo[d]imidazol-4-yl)-3-(2H-tetrazol-5-yl)benzene-1,2-disulfonamide] | 1.563 µM | – | – | – |
| Nc1ccc2cccc(-c3ccc(S(=O)(=O)N[C@H]4CNC[C@H]4N)c(S(N)(=O)=O)c3-c3nn[nH]n3)c2n1 [Example 324, N1-((3S,4R)-4-aminopyrrolidin-3-yl)-4-(2-aminoquinolin-8-yl)-3-(1H-tetrazol-5-yl)benzene-1,2-disulfonamide] | – | – | 0.7813 µM | 1.00 |
| NCc1nc2cc(-c3ccc(S(=O)(=O)N[C@@H](CN)CO)c(S(N)(=O)=O)c3-c3nn[nH]n3)ccc2s1 [Example 475, (S)-N1-(1-amino-3-hydroxypropan-2-yl)-4-(2-(aminomethyl)benzo[d]thiazol-5-yl)-3-(2H-tetrazol-5-yl)benzene-1,2-disulfonamide] | 0.7813 µM | – | – | – |
| NCCNc1cc(-c2ccc(S(=O)(=O)NCCO)c(S(N)(=O)=O)c2-c2nn[nH]n2)ccn1 [Example 457, 4-(2-((2-aminoethyl)amino)pyridin-4-yl)-N1-(2-hydroxyethyl)-3-(2H-tetrazol-5-yl)benzene-1,2-disulfonamide] | 1.563 µM | – | – | – |
| N[C@@H]1C=C(c2ccc(S(=O)(=O)N[C@@H]3CCNC3)c(S(N)(=O)=O)c2-c2nn[nH]n2)CCC1 [Example 340, (S)-5′-amino-N4-((R)-pyrrolidin-3-yl)-2-(2H-tetrazol-5-yl)-2′,3′,4′,5′-tetrahydro[1,1′-biphenyl]-3,4-disulfonamide] | – | – | 1.563 µM | 4.00 |
| N[C@@H]1CNC[C@@H]1NS(=O)(=O)c1ccc(-c2cccn3ccnc23)c(-c2nn[nH]n2)c1S(N)(=O)=O [Example 328, N1-((3S,4R)-4-aminopyrrolidin-3-yl)-4-(imidazo[1,2-a]pyridin-8-yl)-3-(2H-tetrazol-5-yl)benzene-1,2-disulfonamide] | – | – | 1.563 µM | 1.00 |
| CC[C@H](CN)NS(=O)(=O)c1ccc(-c2cccc3[nH]c(N)nc23)c(-c2nn[nH]n2)c1S(N)(=O)=O [Example 265, (R)-4-(2-amino-1H-benzo[d]imidazol-4-yl)-N1-(1-aminobutan-2-yl)-3-(2H-tetrazol-5-yl)benzene-1,2-disulfonamide] | – | – | 0.7813 µM | 1.00 |
| NCCCCNS(=O)(=O)c1ccc(-c2cccc3[nH]c(N)nc23)c(-c2nn[nH]n2)c1S(N)(=O)=O [Example 258, 4-(2-amino-1H-benzo[d]imidazol-7-yl)-N1-(4-aminobutyl)-3-(2H-tetrazol-5-yl)benzene-1,2-disulfonamide] | – | – | 0.7813 µM | 1.00 |
| N[C@H]1C=C(c2ccc(S(=O)(=O)N[C@@H]3CCNC3)c(S(N)(=O)=O)c2-c2nn[nH]n2)CCC1 [Example 339, (R)-5′-amino-N4-((R)-pyrrolidin-3-yl)-2-(2H-tetrazol-5-yl)-2′,3′,4′,5′-tetrahydro-[1,1′-biphenyl]-3,4-disulfonamide] | – | – | 1.563 µM | 4.00 |
| CN1CC(NS(=O)(=O)c2ccc(-c3cccc4[nH]c(N)nc34)c(-c3nn[nH]n3)c2S(N)(=O)=O)C1 [Example 256, 4-(2-amino-1H-benzo[d]imidazol-4-yl)-N1-(1-methylazetidin-3-yl)-3-(2H-tetrazol-5-yl)benzene-1,2-disulfonamide] | – | – | 0.7813 µM | 1.00 |
| Nc1nc2c(-c3ccc(S(=O)(=O)NC[C@H]4CCNC4)c(S(N)(=O)=O)c3-c3nn[nH]n3)cccc2[nH]1 [Example 259, (S)-4-(2-amino-1H-benzo[d]imidazol-4-yl)-N1-(pyrrolidin-3-ylmethyl)-3-(2H-tetrazol-5-yl)benzene-1,2-disulfonamide] | – | – | 0.7813 µM | 1.00 |
| Nc1nc2c(-c3ccc(S(=O)(=O)NC[C@]4(N)CCNC4)c(S(N)(=O)=O)c3-c3nn[nH]n3)cccc2[nH]1 [Example 250, (S)-4-(2-amino-1H-benzo[d]imidazol-4-yl)-N1-((3-aminopyrrolidin-3-yl)methyl)-3-(2H-tetrazol-5-yl)benzene-1,2-disulfonamide] | – | – | 0.7813 µM | 1.00 |
| Cn1c(N)nc2c(-c3ccc(S(=O)(=O)NC[C@@H](O)CN)c(S(N)(=O)=O)c3-c3nn[nH]n3)cccc21 [Example 308, (S)-4-(2-amino-1-methyl-1H-benzo[d]imidazol-4-yl)-N1-(3-amino-2-hydroxypropyl)-3-(2H-tetrazol-5-yl)benzene-1,2-disulfonamide] | – | – | 0.7813 µM | 1.00 |
| NCC(CN)NS(=O)(=O)c1ccc(-c2cccn3ccnc23)c(-c2nn[nH]n2)c1S(N)(=O)=O [Example 386, N1-(1,3-diaminopropan-2-yl)-4-(imidazo[1,2-a]pyridin-8-yl)-3-(2H-tetrazol-5-yl) benzene-1,2-disulfonamide] | – | – | 1.563 µM | 1.00 |
| NC[C@@H](N)CNS(=O)(=O)c1ccc(-c2cnc3cc[nH]c3c2)c(-c2nn[nH]n2)c1S(N)(=O)=O [Example 378, (R)-N 1-(2,3-diaminopropyl)-4-(1H-pyrrolo[3,2-b]pyridin-6-yl)-3-(2H-tetrazol-5-yl)benzene-1,2-disulfonamide] | – | – | 1.563 µM | 2.00 |
| NCCNS(=O)(=O)c1ccc(-c2cccc3ccc(N)nc23)c(-c2nn[nH]n2)c1S(N)(=O)=O [Example 355, N1-(2-aminoethyl)-4-(2-aminoquinolin-8-yl)-3-(2H-tetrazol-5-yl)benzene-1,2-disulfonamide] | – | – | 0.7813 µM | 1.00 |
